Reference: US20260217683A1, “PYRIDAZINONE HETEROCYCLIC COMPOUND MYOSIN II INHIBITOR AND USE THEREOF” (Xizang Haisco Pharmaceutical Co., Ltd., priority 2023, published 2026)
Read-outs that look alike come from different tables or passages of the source.

How the values were obtained:
CYP2D6 = target: T1, CYP2D6 (Homo sapiens, UniProt P10635); test: CYP450 enzyme inhibition, human liver microsomes, CYP2D6; type: in vitro ADME
T1 construct: incubated with human liver microsomes and test compounds of different concentrations; from tissue; host or cells: human liver microsomes
Description: (§1) The purpose of this study was to evaluate the effect of the test compound on the activity of five isoenzymes (CYP1A2, CYP2C9, CYP2C19, CYP2D6 and CYP3A4) of human liver microsomal cytochrome P450 (CYP) by using an in vitro testing system. The specific probe substrates of CYP450 isoenzymes were incubated with human liver microsomes and test compounds of different concentrations, and reduced nicotinamide adenine dinucleotide phosphate (NADPH) was added to initiate the reaction. After the completion of the reaction, the sample was treated and liquid chromatography-tandem mass spectrometry (LC-MS/MS) was used to quantitatively detect metabolites produced by specific substrates, changes in CYP enzyme activity were determined, and IC50 value was calculated to evaluate the inhibitory potential of the test compound on each CYP enzyme subtype.

[1] = test system: rabbit skeletal muscle myosin; test: Inhibition of hydrolysis of ATP by rabbit skeletal muscle myosin; type: biochemical
Description: The purpose of this test was to evaluate the ability of compounds to inhibit the hydrolysis of ATP by rabbit skeletal muscle myosin. The determination method was as follows:
• Preformed F-actin filaments (#AKF99-B, Cytoskeleton) were diluted to 1 mg/mL with Reaction buffer (25 mM Tris-HCL, pH 7.5+35 mM KCl+0.1 mM EGTA+1 mM MgCl2); • Rabbit myosin (#MYO2-A, Cytoskeleton) was diluted to 0.1 mg/mL with Resuspension buffer (15 mM Tris-HCL, PH7.5+0.2 M KCl+1 mM MgCl2); • ATP (#BSA04-001, Cytoskeleton) was diluted to 3 mM working solution with 15 mM Tris-HCL (PH=7.5);
• adding 13 μL reaction buffer+12 μL F-actin to actin control wells; • adding 10 μL reaction buffer+12 μL F-actin+3 μL myosin II to positive control wells; • adding 10 μL of compound working solution+12 μL of F-actin+3 μL of myosin II to the compound wells; • adding 5 μL of ATP working solution to all test wells to start the reaction, and simultaneously adding a sample to the Pi standard wells according to the instruction (#BK054, Cytoskeleton); • gently mixing and accurately incubating at 37° C. for 60 min; • adding 70 μL of CytoPhos Reagent (#BK054, Cytoskeleton) to each well and incubating for 10 min to stop the reaction.
• the OD value of each well was detected at 650 nm using the endpoint method. The standard curve was fitted according to Pi concentration and OD value, and the Pi concentration of each test well was obtained. Inhibition (%)=(Pi positive control well-Pi test well)/Pi positive control well*100%. The Inhibition %-[…] curve was fitted with Graphpad Prism 8 software, and IC50 was calculated.

CYP3A4 = target: T2, CYP3A4 (Homo sapiens, UniProt P08684); test: CYP450 enzyme inhibition, human liver microsomes, CYP3A4; type: in vitro ADME
T2 construct: incubated with human liver microsomes and test compounds of different concentrations; from tissue; host or cells: human liver microsomes
T2 sequence (P08684 whole entry): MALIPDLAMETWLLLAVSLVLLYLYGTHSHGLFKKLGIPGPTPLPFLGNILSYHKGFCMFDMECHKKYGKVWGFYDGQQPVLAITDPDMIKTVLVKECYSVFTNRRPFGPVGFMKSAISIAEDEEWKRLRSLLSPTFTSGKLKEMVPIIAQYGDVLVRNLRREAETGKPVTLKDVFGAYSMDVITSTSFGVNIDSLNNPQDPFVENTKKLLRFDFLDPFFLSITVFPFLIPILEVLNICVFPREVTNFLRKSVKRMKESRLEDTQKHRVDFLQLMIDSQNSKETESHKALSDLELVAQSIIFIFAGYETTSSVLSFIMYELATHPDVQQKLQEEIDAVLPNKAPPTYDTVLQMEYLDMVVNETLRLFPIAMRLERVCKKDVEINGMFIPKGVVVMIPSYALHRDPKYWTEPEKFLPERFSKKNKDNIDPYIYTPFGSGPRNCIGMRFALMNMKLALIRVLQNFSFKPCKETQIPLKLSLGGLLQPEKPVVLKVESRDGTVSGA
Description: as §1

CYP2C19 = target: T3, CYP2C19 (Homo sapiens, UniProt P33261); test: CYP450 enzyme inhibition, human liver microsomes, CYP2C19; type: in vitro ADME
T3 construct: incubated with human liver microsomes and test compounds of different concentrations; from tissue; host or cells: human liver microsomes
T3 sequence (P33261 whole entry): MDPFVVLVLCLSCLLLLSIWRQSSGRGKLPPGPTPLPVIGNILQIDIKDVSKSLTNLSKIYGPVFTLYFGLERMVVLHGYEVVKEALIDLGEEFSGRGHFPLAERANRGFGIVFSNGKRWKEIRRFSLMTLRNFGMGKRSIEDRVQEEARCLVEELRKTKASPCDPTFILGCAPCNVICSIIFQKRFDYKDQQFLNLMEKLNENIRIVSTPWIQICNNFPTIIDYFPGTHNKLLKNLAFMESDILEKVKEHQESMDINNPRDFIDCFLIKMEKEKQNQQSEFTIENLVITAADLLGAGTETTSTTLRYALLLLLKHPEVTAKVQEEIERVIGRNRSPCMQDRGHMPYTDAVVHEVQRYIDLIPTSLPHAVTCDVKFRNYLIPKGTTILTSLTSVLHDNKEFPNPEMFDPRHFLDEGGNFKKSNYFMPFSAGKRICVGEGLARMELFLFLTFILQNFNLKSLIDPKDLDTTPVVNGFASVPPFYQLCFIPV
Description: as §1

CYP2C9 = target: T4, CYP2C9 (Homo sapiens, UniProt P11712); test: CYP450 enzyme inhibition, human liver microsomes, CYP2C9; type: in vitro ADME
T4 construct: incubated with human liver microsomes and test compounds of different concentrations; from tissue; host or cells: human liver microsomes
T4 sequence (P11712 whole entry): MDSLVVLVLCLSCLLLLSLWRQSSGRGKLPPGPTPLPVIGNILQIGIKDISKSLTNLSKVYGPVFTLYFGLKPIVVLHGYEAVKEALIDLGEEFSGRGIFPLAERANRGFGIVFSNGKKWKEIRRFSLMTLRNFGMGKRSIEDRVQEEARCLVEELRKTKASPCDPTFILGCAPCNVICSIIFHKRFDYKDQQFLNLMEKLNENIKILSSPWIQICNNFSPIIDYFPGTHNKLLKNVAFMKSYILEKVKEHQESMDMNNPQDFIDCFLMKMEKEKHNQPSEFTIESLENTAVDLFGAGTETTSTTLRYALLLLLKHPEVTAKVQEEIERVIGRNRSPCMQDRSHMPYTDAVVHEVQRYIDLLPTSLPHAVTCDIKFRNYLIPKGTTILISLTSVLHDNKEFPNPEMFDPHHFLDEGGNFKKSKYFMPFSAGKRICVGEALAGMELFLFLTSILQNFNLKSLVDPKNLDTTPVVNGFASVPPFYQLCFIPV
Description: as §1

CYP1A2 = target: T5, CYP1A2 (Homo sapiens, UniProt P05177); test: CYP450 enzyme inhibition, human liver microsomes, CYP1A2; type: in vitro ADME
T5 construct: incubated with human liver microsomes and test compounds of different concentrations; from tissue; host or cells: human liver microsomes
T5 sequence (P05177 1-516): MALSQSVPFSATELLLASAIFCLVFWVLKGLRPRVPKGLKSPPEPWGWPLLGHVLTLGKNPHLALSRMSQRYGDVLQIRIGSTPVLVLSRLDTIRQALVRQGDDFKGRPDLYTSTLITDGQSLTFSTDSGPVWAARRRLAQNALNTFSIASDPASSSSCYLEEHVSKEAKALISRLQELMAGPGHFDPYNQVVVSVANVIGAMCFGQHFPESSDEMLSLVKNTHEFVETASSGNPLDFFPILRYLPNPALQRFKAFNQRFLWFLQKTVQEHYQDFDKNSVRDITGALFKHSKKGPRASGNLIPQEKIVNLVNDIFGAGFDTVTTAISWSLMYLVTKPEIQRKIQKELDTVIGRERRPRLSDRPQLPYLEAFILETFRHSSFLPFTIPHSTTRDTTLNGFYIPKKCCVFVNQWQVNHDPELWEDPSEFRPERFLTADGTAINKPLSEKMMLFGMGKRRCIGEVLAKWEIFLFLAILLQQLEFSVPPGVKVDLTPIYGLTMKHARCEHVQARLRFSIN
Description: as §1

smooth muscle myosin S1 = target: T6, smooth muscle myosin S1 (Gallus gallus, UniProt P10587); test: Inhibition of hydrolysis of ATP by smooth muscle myosin S1 fragments; type: biochemical; conditions: 100 μM compound
T6 construct: purchased Cytoskeleton #CS-MYS05
T6 sequence (P10587 84-789 limits assumed): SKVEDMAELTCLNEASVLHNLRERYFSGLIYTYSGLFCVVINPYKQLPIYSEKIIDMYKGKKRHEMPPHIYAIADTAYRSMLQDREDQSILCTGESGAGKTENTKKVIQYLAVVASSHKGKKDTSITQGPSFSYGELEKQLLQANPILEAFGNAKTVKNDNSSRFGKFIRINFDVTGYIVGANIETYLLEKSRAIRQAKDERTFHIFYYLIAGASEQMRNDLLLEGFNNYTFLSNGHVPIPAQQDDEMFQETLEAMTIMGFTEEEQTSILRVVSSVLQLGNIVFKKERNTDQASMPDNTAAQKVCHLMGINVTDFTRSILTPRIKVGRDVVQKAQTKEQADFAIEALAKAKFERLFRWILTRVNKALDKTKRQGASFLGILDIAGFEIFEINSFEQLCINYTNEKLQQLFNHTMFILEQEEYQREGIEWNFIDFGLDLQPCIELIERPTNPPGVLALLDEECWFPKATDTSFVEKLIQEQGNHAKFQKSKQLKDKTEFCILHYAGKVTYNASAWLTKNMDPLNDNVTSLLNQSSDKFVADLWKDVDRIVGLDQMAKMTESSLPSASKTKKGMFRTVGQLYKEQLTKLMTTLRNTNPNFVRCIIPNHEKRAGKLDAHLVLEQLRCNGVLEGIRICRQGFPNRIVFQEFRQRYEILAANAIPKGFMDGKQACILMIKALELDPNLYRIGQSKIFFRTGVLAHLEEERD
T6 sequence (P02607 whole entry partner, the tested form may be a part): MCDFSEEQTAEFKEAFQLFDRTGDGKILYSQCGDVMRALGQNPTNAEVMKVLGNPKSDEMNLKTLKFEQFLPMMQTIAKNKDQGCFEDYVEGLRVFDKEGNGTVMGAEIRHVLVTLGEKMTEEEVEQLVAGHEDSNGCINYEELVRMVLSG
Description: The purpose of this test was to evaluate the ability of compounds to inhibit the hydrolysis of ATP by smooth muscle myosin Si fragments. The determination method was as follows: • 1. Solution formulation • F-actin polymer: Cardiac Actin powder (#CS-AD99, Cytoskeleton) was dissolved in a buffer (5 mM Pipes-KOH solution, PH=7.0, containing 100 μM ATP and 500 μM DTT) to form a 2 mg/mL solution and the solution was left at room temperature for 30 min; then 2 mM MgCl2 and 2 mM EGTA were added and the obtained system was left at room temperature for 40 min; • Smooth muscle SI fragment (#CS-MYS05, Cytoskeleton) was diluted with a pre-cooled PM12 buffer containing 1 mM DTT (12 mM Pipes-KOH solution, PH=7.0, containing 2 mM MgCl2) to form a 0.7 mg/mL solution; • ATP (#BSA04-001, Cytoskeleton) was diluted to 5 mM working solution with 15 mM Tris-HCL (PH=7.5); • 2. […] Experimental steps: • adding 10 μL of compound working solution+6 μL of F-actin polymer+4 μL of Smooth muscle Si fragment solution to the compound wells; • adding 10 μL of PM12 buffer containing DMSO+6 μL of F-actin polymer+4 μL of Smooth muscle S1 fragment solution to positive control wells; • adding 10 μL of PM12 buffer containing DMSO+6 μL of F-actin polymer+4 μL of PM12 buffer to negative control wells; • adding […] of 5 mM ATP working solution to all test wells to start the reaction, gently mixing and incubating at 37° C. for 20 min; • after the reaction was completed, taking 6 μLL of reaction liquid, adding 24 μL of PM12 buffer for 5-fold dilution, then detecting the content of the product Pi with a phosphate kit (#BK054, Cytoskeleton); • adding a standard according to the instructions, adding 70 μL of CytoPhos Reagent (#BK054, Cytoskeleton) to all wells and incubating at room temperature for 10 min before detection. • 4. Detection: • the OD value of each well was detected at 650 nm. The standard curve was fitted according to Pi standard concentration and OD value, and the Pi concentration of each test well was obtained. Inhibition (%)=(positive control well−test well)/positive control well*100%.

cardiac myosin SII = target: T7, cardiac myosin SII (Bos taurus, UniProt Q9BE39); test: Inhibition of hydrolysis of ATP by cardiac myosin SII; type: biochemical; conditions: 100 μM compound
T7 construct: purchased Cytoskeleton #MYO3-A
T7 sequence (Q9BE39 whole entry): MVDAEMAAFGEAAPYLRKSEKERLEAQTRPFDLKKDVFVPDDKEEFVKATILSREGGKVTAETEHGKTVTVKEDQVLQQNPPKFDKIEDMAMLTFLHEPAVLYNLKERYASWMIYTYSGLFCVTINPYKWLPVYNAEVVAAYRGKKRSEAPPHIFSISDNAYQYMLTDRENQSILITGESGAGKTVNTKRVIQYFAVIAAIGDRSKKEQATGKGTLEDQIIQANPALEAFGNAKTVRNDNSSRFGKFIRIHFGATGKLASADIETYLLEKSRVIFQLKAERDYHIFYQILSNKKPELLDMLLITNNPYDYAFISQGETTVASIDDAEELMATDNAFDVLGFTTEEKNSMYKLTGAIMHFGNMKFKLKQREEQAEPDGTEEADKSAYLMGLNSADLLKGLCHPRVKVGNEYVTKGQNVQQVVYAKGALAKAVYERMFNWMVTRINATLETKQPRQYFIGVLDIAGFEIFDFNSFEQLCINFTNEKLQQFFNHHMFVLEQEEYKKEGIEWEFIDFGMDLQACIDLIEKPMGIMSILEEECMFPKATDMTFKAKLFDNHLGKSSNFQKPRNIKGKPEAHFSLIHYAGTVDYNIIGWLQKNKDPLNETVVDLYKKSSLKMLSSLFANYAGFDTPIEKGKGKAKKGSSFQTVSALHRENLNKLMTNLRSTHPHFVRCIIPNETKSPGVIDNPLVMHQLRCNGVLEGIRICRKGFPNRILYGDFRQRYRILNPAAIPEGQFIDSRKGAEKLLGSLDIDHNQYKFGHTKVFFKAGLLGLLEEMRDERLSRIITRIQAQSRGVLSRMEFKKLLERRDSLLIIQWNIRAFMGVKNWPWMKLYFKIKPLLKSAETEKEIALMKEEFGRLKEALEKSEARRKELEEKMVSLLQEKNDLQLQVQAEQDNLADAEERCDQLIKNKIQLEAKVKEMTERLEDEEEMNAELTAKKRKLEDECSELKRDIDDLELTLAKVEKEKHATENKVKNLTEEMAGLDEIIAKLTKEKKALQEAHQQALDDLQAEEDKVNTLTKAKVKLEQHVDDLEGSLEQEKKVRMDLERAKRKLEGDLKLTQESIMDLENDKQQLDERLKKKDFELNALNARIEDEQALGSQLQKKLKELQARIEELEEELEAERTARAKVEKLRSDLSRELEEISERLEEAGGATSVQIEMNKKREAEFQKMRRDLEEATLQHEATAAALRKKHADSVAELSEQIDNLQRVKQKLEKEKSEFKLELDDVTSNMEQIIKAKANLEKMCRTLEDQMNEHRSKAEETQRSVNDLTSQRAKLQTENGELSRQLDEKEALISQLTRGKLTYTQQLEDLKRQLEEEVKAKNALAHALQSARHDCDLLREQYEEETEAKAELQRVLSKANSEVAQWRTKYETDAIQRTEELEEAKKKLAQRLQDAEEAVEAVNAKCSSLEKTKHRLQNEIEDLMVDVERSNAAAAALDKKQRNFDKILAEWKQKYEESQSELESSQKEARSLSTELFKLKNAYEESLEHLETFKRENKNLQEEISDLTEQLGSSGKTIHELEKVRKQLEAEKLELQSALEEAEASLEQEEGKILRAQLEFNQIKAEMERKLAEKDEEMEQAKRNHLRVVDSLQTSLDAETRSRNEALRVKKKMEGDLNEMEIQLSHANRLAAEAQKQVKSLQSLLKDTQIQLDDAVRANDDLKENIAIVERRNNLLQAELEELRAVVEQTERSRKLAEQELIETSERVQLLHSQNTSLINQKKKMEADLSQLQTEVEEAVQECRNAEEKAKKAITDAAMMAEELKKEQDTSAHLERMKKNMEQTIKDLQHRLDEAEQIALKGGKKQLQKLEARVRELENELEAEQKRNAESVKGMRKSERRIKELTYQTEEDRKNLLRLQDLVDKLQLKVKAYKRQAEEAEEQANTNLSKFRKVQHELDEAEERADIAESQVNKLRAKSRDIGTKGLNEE
T7 sequence (P85100 whole entry partner): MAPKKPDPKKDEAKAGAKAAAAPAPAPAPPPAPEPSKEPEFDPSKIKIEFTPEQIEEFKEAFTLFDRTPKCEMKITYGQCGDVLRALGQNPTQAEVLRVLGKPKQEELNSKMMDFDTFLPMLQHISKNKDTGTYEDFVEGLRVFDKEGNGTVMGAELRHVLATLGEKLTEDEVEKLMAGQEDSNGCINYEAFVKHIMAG
T7 sequence (Q3SZE5 whole entry partner): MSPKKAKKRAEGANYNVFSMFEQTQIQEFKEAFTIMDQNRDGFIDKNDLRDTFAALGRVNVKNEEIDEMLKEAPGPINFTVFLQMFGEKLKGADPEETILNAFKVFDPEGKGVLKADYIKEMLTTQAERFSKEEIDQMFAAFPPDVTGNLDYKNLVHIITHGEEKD
Description: The purpose of this test was to evaluate the ability of compounds to inhibit the hydrolysis of ATP by cardiac myosin SII. The determination method was as follows: • 1. Solution formulation: • Preformed F-actin filaments (#AKF99-B, Cytoskeleton) were diluted to 1 mg/mL with Reaction buffer (15 mM Tris-HCL. PH7.5+10 mM KCl+0.1 mM EGTA+2 mM MgCl2); • Cardiac Muscle myosin (#MYO3-A, Cytoskeleton) was diluted to 1 mg/mL with Resuspension buffer (15 mM Tris-HCL, PH7.5+0.2M KCl+1 mM MgCl2); • ATP (#BSA04-001, Cytoskeleton) was diluted to 3 mM working solution with 15 mM Tris-HCL (PH=7.5); • 2. Formulation of working solution of compounds: the final compound concentration was 100 μM • 3. Experimental steps: • adding 10 μL of compound working solution+12 μL of Preformed F-actin filaments+3 μL of Cardiac Muscle myosin to the compound wells; • adding 10 μL of reaction buffer containing DMSO+12 μL Preformed F-actin filaments +3 μL Cardiac Muscle myosin to positive control wells; • adding 10 μL of reaction buffer containing DMSO+12 μL Preformed F-actin filaments +3 μL Resuspension buffer to negative control wells; • adding 5 μL of 3 mM ATP working solution to all test wells to start the reaction, gently mixing and incubating at 37° C. for 2 h; • after the reaction was completed, taking 6 μL of reaction liquid, adding 24 μL of reaction buffer for 5-fold dilution, then detecting the content of the product Pi with a phosphate kit (#BK054, Cytoskeleton); • adding a sample to Pi standard wells according to the instructions; • adding 70 μL of CytoPhos Reagent (#BK054, Cytoskeleton) to each well and incubating at room temperature for 10 min before detection. • 4. Detection: • the OD value of each well was detected at 650 nm. The standard curve was fitted according to Pi standard concentration and OD value, and the Pi concentration of each test well was obtained. Inhibition (%)=(positive control well−test well)/positive control well*100%.

[2] = Pharmacokinetic experiment in mouse muscle tissue (tibialis anterior / plasma); type: in vivo, C57 mice; conditions: male, C57, tibialis anterior muscle / plasma, oral, intragastric 10 mg/kg, read-out: Ratio = Tibialis anterior Conc./Plasma Conc.
Description: 1. Experimental animals: Male C57 mice, 22-25 g, 6 mice/compound. Purchased from Chengdu Ddossy Experimental Animals Co., Ltd.
2. Experimental design: On the day of the experiment, C57 mice were randomly grouped according to their body weight. The animals were fasted with water available for 12 to 14 h one day before the administration and were fed 4 h after the administration. Administration was performed as per Table 10.1.

[3] = inhibition of hydrolysis of ATP, class symbols, read-out: Rabbit skeletal muscle myosin (IC50)
[4] = read-out: IC50 for inhibition of hydrolysis of ATP by rabbit skeletal muscle myosin

SMILES	IC50 [1, 3]	IC50 [1, 4]	inhibition at 100 µM (smooth muscle myosin S1)	inhibition at 100 µM (cardiac myosin SII)	further results
O=c1ccc(-c2cnc(O[C@H]3CCOC3)nc2)nn1Cc1ccc2c(c1)CC2 [Compound 106]	< 2500 nM	200 nM			IC50 (CYP2D6): > 30 µM; IC50 (CYP3A4): > 30 µM; IC50 (CYP2C19): > 30 µM; IC50 (CYP2C9): > 30 µM; IC50 (CYP1A2): > 30 µM
O=c1ccc(-c2cnc(C3CC(F)(F)C3)nc2)nn1Cc1ccc2c(c1)CCC2 [Compound 127]	< 2500 nM		-6%	8%	
O=c1ccc(-c2cnc(Oc3nccs3)nc2)nn1Cc1ccc2c(c1)CCC2 [Compound 130]	2500 to 20000 nM		2%	3%	
O=c1ccc(-c2cnc(Oc3ccnc(C(F)(F)F)c3)nc2)nn1Cc1ccc2c(c1)CCC2 [Compound 133]	< 2500 nM		8%	-4%	
O=c1ccc(-c2cnc(Oc3cncc(C(F)(F)F)c3)nc2)nn1Cc1ccc2c(c1)CCC2 [Compound 134]	< 2500 nM		8%	1%	
O=C1CCc2cc(F)c(Cn3nc(-c4cnc(OCC(F)(F)F)nc4)ccc3=O)cc21 [Compound 136]	< 2500 nM		-4%	-7%	
CC(F)(F)COc1ncc(-c2ccc(=O)n(Cc3ccc4c(c3)C(=O)CC4)n2)cn1 [Compound 139]	< 2500 nM	600 nM	6%	6%	Kp at 6 h ([2]; 6 h): 63.5; Kp at 24 h ([2]; 24 h): 85.5
O=c1ccc(-c2cnc(OCC(F)(F)F)nc2)nn1Cc1ccc2c(c1)C1CC1C2 (stereo not shown) [Compound 140]	< 2500 nM	800 nM			Smooth muscle myosin S1 (Inhibition @ 100 μM) (smooth muscle myosin S1): 2%; Cardiac myosin SII (Inhibition @ 100 μM) (cardiac myosin SII): −6%
O=C1CCc2ccc(Cn3nc(-c4cnc(Oc5cncc(C(F)(F)F)c5)nc4)ccc3=O)cc21 [Compound 142]	2500 to 20000 nM		2%	-8%	
O=C1CCc2ccc(Cn3nc(-c4cnc(Oc5csc(C(F)(F)F)c5)nc4)ccc3=O)cc21 [Compound 155]	< 2500 nM		5%	1%	
O=c1ccc(-c2cnc(OCC(F)(F)F)nc2)nn1Cc1ccc2c(c1)CC1CC21 (stereo not shown) [Compound 156]	< 2500 nM	900 nM	-11%	7%	
O=c1ccc(-c2cnc(OCC(F)(F)F)nc2)nn1Cc1ccc2c(c1)C1CC1C2 (stereo not shown) [Compound 159]	< 2500 nM	400 nM			Smooth muscle myosin S1 (Inhibition @ 100 μM) (smooth muscle myosin S1): 5%; Cardiac myosin SII (Inhibition @ 100 μM) (cardiac myosin SII): 7%
O=C1CCc2c(Cl)cc(Cn3nc(-c4cnc(OCC(F)(F)F)nc4)ccc3=O)cc21 [Compound 166]	< 2500 nM		6%	17%	
